Test results as given in publication PMC6668024 (Journal of medicinal chemistry, 2018).
Each block holds one compound with its values, some of them ahead of it.

Legend:
[1] = target: T1, Topo I (Homo sapiens, UniProt P11387); assay: Topo I inhibitory activity assay; format: biochemical
T1 sequence (P11387 1-765): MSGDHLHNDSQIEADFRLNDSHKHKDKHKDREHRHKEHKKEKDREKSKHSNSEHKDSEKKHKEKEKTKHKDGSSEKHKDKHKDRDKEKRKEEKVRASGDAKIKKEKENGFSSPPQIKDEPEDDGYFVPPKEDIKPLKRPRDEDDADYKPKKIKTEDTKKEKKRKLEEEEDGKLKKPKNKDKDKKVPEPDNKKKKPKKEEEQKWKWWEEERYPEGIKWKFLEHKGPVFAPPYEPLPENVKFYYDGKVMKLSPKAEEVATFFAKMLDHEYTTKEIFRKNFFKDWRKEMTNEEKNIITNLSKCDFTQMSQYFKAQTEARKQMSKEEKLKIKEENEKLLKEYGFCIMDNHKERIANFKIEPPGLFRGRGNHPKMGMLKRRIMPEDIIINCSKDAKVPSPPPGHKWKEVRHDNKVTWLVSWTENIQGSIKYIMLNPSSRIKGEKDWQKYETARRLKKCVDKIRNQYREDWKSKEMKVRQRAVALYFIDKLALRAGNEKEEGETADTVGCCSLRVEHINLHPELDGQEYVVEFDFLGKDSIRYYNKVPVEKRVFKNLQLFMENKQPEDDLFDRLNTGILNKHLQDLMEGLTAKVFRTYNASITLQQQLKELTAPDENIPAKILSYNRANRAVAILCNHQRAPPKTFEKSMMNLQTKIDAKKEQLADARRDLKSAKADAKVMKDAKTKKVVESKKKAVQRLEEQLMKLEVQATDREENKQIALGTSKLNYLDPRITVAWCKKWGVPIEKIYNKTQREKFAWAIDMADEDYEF

[2] = target: T2, Topo I-DNA cleavage complex (Homo sapiens, UniProt P11387); assay: Topo I-mediated DNA cleavage assay; format: biochemical; conditions: EB-containing gel; for Topo I-mediated DNA cleavage (amount of nicked DNA): 100 μM or 50 μM
T2 sequence (P11387 1-765): T1 sequence (P11387 1-765)

[3] = system: IL-6; assay: IL-6 in serum, LPS sepsis model; format: in vivo, C57BL/6 mice; conditions: serum 72 h after LPS
[4] = system: TNF-α; assay: TNF-α in serum, LPS sepsis model; format: in vivo, C57BL/6 mice; conditions: serum 72 h after LPS
[5] = In vivo pharmacokinetics, plasma levels by LC-MS/MS; design: species or system male C57BL/6 mice; conditions: for parent compound (4 or 3) in plasma after i.v. dosing of the ester: 2 mg/kg intravenously
[6] = for body weight of treated mice: HepG-2 xenograft mice, treatment for 30 days, doses as in Figure 5
[7] = system: A549; assay: MTT cytotoxicity assay, A549; format: cell-based, human; conditions: 48 h
[8] = system: MCF-7; assay: MTT cytotoxicity assay, MCF-7; format: cell-based, human; conditions: MCF-7, MTT, 48 h
[9] = system: MDA-MB-231; assay: MTT cytotoxicity assay, MDA-MB-231; format: cell-based, human; conditions: MDA-MB-231, MTT, 48 h
[10] = system: HepG-2; assay: MTT cytotoxicity assay, HepG-2; format: cell-based, human; conditions: HepG-2, MTT, 48 h
[11] = system: KB; assay: MTT cytotoxicity assay, KB; format: cell-based, human; conditions: 48 h
[12] = system: BEL-7402; assay: MTT cytotoxicity assay, BEL-7402; format: cell-based, human; conditions: BEL-7402, MTT, 48 h
[13] = system: SMMC-7721; assay: MTT cytotoxicity assay, SMMC-7721; format: cell-based, human; conditions: SMMC-7721, MTT, 48 h
[14] = system: MGC80-3; assay: MTT cytotoxicity assay, MGC80-3; format: cell-based, human; conditions: MGC80-3, MTT, 48 h
[15] = system: SK-N-SH; assay: MTT cytotoxicity assay, SK-N-SH; format: cell-based, human; conditions: 48 h
[16] = system: QGY-7703; assay: MTT cytotoxicity assay, QGY-7703; format: cell-based, human; conditions: QGY-7703, MTT, 48 h
[17] = system: SGC-7901; assay: MTT cytotoxicity assay, SGC-7901; format: cell-based, human; conditions: SGC-7901, MTT, 48 h
[18] = Aqueous solubility; conditions: parental compounds
[19] = physchem
[20] = 50 μM and 100 μM, EB-free gel (Figure 3a, 3b)

Compound: CC[C@@]1(O)C(=O)OCc2c1cc1n(c2=O)Cc2cc3ccccc3nc2-1 [CPT, Camptothecin, reference compound]
Topo I inhibitory activity [1, 20]: can inhibit Topo I activity
Topo I-mediated DNA cleavage (amount of nicked DNA) [2]: can increase the amount of nicked DNA

Compound: CC[C@@]1(OC(=O)CNC(=O)CCC(=O)O)C(=O)OCc2c1cc1n(c2=O)Cc2cc3c4c(ccc3nc2-1)OC(C(C)C)NC4=O (stereo partly drawn) [Compound 11, 4-((2-(((9S)-9-Ethyl-3-isopropyl-1,10,13-trioxo-1,2,3,9,10,12,13,15-octahydro-[1,3]oxazino[5,6-f]pyrano[3',4':6,7]indolizino[1,2-b]quinolin-9-yl)oxy)-2-oxoethyl)amino)-4-oxobutanoic acid]
Topo I inhibitory activity [1, 20]: almost inactive
Topo I-mediated DNA cleavage (stabilization of cleavage complex) ([2]; 50 μM): failed to stabilize Topo I-DNA cleavage complex
expression of IL-6 in mouse serum [3]: suppressed
expression of TNF-α in mouse serum [4]: suppressed
parent compound (4 or 3) in plasma after i.v. dosing of the ester ([5]; mice): very low concentration
concentration in plasma through oral administration ([5]; mouse, in vivo, po): extremely low
body weight of treated mice [6]: no major influence on body weight
side effects, pathological anatomy of viscera ([6]; oral administration compared with the i.v. dosage): increases the occurrence of gastrointestinal flatulence

Compound: (9S)-9-Ethyl-9-hydroxy-3-isopropyl-2,3-dihydro-[1,3]oxazino[5,6-f]pyrano[3',4':6,7]indolizino[1,2-b]quinoline-1,10,13(9H,12H,15H)-trione [Compound 3]
IC50 [7]: 2170 nM
IC50 [8]: 10800 nM
IC50 [9]: 1320 nM
IC50 [10]: 1110 nM
IC50 [11]: 9760 nM
IC50 [12]: > 10000 nM
IC50 [13]: > 10000 nM
IC50 [14]: 390 nM
IC50 [15]: 325 nM
IC50 [16]: > 10000 nM
IC50 [17]: > 10000 nM
Topo I inhibitory activity ([1]; 50 μM, EB-free gel (Figure 4)): high
aqueous solubility [18]: < 2 µg/mL

Compound: CC[C@@]1(O)C(=O)OCc2c1cc1n(c2=O)Cc2cc3c(ccc4oc(C(C)C)nc43)nc2-1 [Compound 4, (S)-8-Ethyl-8-hydroxy-2-isopropyl-8H-oxazolo[4,5-f]pyrano[3',4':6,7]indolizino[1,2-b]quinoline-9,12(11H,14H)-dione]
Topo I inhibitory activity ([1]; 50 μM, EB-free gel (Figure 4)): weak inhibitor
solubility [19]: < 2 µg/mL

Compound: CC[C@@]1(OC(=O)CNC(=O)CCC(=O)O)C(=O)OCc2c1cc1n(c2=O)Cc2cc3c(ccc4oc(C(C)C)nc43)nc2-1 [Compound 9, (S)-4-((2-((8-Ethyl-2-isopropyl-9,12-dioxo-9,11,12,14-tetrahydro-8H-oxazolo[4,5-f]pyrano[3',4':6,7]indolizno[1,2-b]quinolin-8-yl)oxy)-2-oxoethyl)amino)-4-oxobutanoic acid]
Topo I inhibitory activity [1, 20]: weak inhibition
Topo I-mediated DNA cleavage (amount of nicked DNA) [2]: can increase the amount of nicked DNA
expression of IL-6 in mouse serum [3]: suppressed
expression of TNF-α in mouse serum [4]: suppressed
parent compound (4 or 3) in plasma after i.v. dosing of the ester ([5]; mice): not detected
concentration in plasma through oral administration ([5]; single oral administration, mice): extremely low
body weight of treated mice [6]: no major influence on body weight
survival of xenograft mice on oral dosing ([6]; daily oral dose 5 mg/kg): most mice failed to reach the end point

Topo I-mediated DNA cleavage (amount of nicked DNA) [2]: can increase the amount of nicked DNA
Compound: CC[C@@]1(O)C(=O)OCc2c1cc1n(c2=O)Cc2cc3c(CN(C)C)c(O)ccc3nc2-1 [Topotecan, reference compound]
